Our source for the EC50 values is patent publication US20240307507A1, “LACTOFERRIN COMPOSITIONS AND METHODS OF USE” (LACTEA THERAPEUTICS LLC, priority 2021, published 2024).

The test system of the test is SARS-COV-2. The test is described as follows: SARS-COV-2 Cytopathic Effect (CPE) reduction assay in Vero E6 cells. The format is cell-based. The conditions noted are these: Severe acute respiratory syndrome coronavirus 2, Vero C1008, 72 h.

In general, EC50 refers to the midpoint of the concentration-response curve. Read a low EC50 as a more potent agent. Consider `CCC(CC)COC(=O)[C@H](C)N[P@](=O)(OC[C@H]1O[C@@](C#N)(c2ccc3c(N)ncnn23)[C@H](O)[C@@H]1O)Oc1ccccc1` [Remdesivir, reference compound], for which the EC50 came to 4.5 µM.
